Measured values: patent publication US8206941B2, “Three part assay for kinase or phosphatase activity” (Hoffmann-La Roche Inc., priority 2005, dated 2012)
pEC50: −log10 of the molar value.

Biological target: T1, PDHK2 (recombinant pyruvate dehydrogenase kinase 2) (Homo sapiens, UniProt Q15119)
T1 construct: made in house
Test: Fast-TR FRET kinase IMAP assay, ATP dependence of the kinase reaction
Format: biochemical
Conditions: 1 μM Alexa-peptide in the kinase reaction; concentration in the kinase reaction (50 times less in readout); FRET readout 730 (30) nm; FIG. 9; read-out: EC50 of ATP dose response curve
Text: • Substrate peptide (YHGHSMSAPGVSTAC (SEQ ID NO: 1)) from Biosyntan labeled with Alexa Fluor 700 • Phosphorylated substrate peptide (YHGHS(H2PO4)MSAPGVSTAC (SEQ ID NO: 1)) from Biosyntan labeled with Alexa Fluor 700 and Ru(batho) 2bpy • Kinase enzyme: PDHK2 (recombinant pyruvate dehydrogenase kinase 2, expressed according to standard methods) • IMAP™ beads from Molecular Devices (IMAP™ Explorer Kit (IPP) Product # R8062) • Buffer: IMAP™ Binding Buffer 1:5 diluted with dest. H2O+0.05% BSA Instrumentation: • Zeiss plate::vision reader • Plate: Costar 384, UV-NBS • Excitation wavelength: 355 nm • Emission filter: 730 (30) nm, 615 (10) nm
1 μl of the PDHK2 enzyme was diluted in 11 μl kinase buffer (25 mM Hepes pH 7.4, 150 mM NaCl, 18.7 mM MgCl2, 0.4 mM NH4Ac, 0.025% Triton X-100, 1.87 mM DTT). […] For the readout the final substrate concentration was 20 nM (phosphorylated) Alexa-peptide and with the final ATP concentration of 2 μM the FRET signal should be easily detectable (FIG. 5). […]
Note that these were the concentrations in the kinase reaction, in the readout they were 50 times less. […] With higher ATP concentrations the signal decreased again due to free ATP in the readout mixture which bound to the IMAP™ beads and thus decreased the binding capacity of the IMAP™ beads. […]

SMILES: Nc1ncnc2c1ncn2[C@@H]1O[C@H](COP(=O)(O)OP(=O)(O)OP(=O)(O)O)[C@@H](O)[C@H]1O [ATP]
- pEC50: 5.44
